Measured values taken from patent publication US20120059032A1, “1,2,3,4-TETRAHYDROISOQUINOLINE DERIVATIVES EFFECTIVE AS ANTIGLIOMA AGENTS, METHODS OF MAKING, AND THEIR USE” (University of Tennessee Research Foundation, priority 2009, published 2012).
Where a name gives a salt, the structure may show the parent alone. Read-outs that look alike come from different tables or passages of the source. Each block holds one molecule with its values, some of them ahead of it.

Experiments:
C6 rat glioma cells = assay: Screening and dose response assay (percent survival, 4 days, cresyl violet) on C6 glioma; format: cell-based
Description: (§1) Screening and Dose Response Assays. […]-1-(2′-methoxybiphenyl-4-ylmethyl)-3,4-dihydro-1H-isoquinoline-2-carboxylic acid tert-butyl ester (7a; EDL-355) was synthesized as described herein in the laboratory of Dr. Duane D. Miller at The University of Tennessee Health Science Center. Briefly, the primary cultures of astrocytes and cultures of C6 glioma cell lines were handled identically with respect to treatment concentrations and manipulations of cells for the screening assays. The cells were trypsinized and transferred to 96-well plates at a cell density of 10^3 cells/mm^2 in the wells. The cells were grown overnight in 100 μL of 10% FCS BME in a 37° C. incubator containing a humid, 5% CO2 atmosphere.
(§2) EDL-355 was dissolved completely to make a 100 μM stock solution and diluted to produce a series of concentrations.
(§3) A 20 μL aliquot of these initial solutions was added to 180 μl of 2% FCS BME to produce the test concentration. The vehicle solution was tested as a control. […] Immediately before treatment, the 10% FCS BME was removed from the cells and replaced with the […] of the treatment medium. The cultured cells (normal primary cultures of rat brain astrocytes or C6 glioma purchased from ATCC) were incubated with test compound for 4 days. The cells were fixed with 4% paraformaldehyde, stained with 0.1% Cresylecth violet stain, and quantitated. The screening data was collected as four wells for each dose per compound (screening) or concentration (dose response curve). Also, the average growth of 8 wells with no treatment was used as a negative control for each plate (100% growth). The cells for dose response curves were grown in the same media and were handled in a similar manner as in the screening assays.
(§4) Data Analysis. The cytotoxic character of each compound was reported as the percent survival, calculated as the average A560 for treated cells divided by A560 of untreated (100% control) cells, and expressed as a percentage. Values less than 100% indicate a cytostatic or cytotoxic effect. Dose response curves and EC50 values were attained via plots of percent survival vs. concentration.

[1] = test system: primary cultures of normal rat astrocytes; assay: Screening and dose response assay (percent survival, 4 days, cresyl violet) on astrocytes; format: cell-based; conditions: Table 1
Description: as §1, §2, §3, §4

Structure (SMILES): COc1cc2c(c(OC)c1)C(Cc1ccc(-c3ccccc3OC)cc1)NCC2 (single isomer, unassigned) [12a]
- EC50 (C6 rat glioma cells; Table 1, listed as drawing 11, read-out: EC50 μM C6): 5.4 µM
- EC50 (C6 rat glioma cells; text b70, rat C6 glioma cell lines, listed as (−) 12a, read-out: antiglioma activity on rat C6 glioma cell lines): 5.39 µM
- EC50 ([1]; listed as drawing 11, read-out: EC50 μM Astrocyte): 15.4 µM

Structure (SMILES): COc1cc2c(c(OC)c1)C(Cc1ccc(-c3ccccc3OC)cc1)NCC2 (single isomer, unassigned) [13a]
- EC50 (C6 rat glioma cells; Table 1, listed as drawing 12, read-out: EC50 μM C6): 0.3 µM
- fold more potent than (−) 12a on rat C6 glioma cell lines (C6 rat glioma cells; ratio of the C6 values of (−) 12a and (+) 13a): ~21 fold
- EC50 (C6 rat glioma cells; text b70, rat C6 glioma cell lines, listed as (+) 13a, read-out: antiglioma activity on rat C6 glioma cell lines): 0.26 µM
- EC50 ([1]; Rattus norvegicus, Astrocyte): 13.3 µM

- melting point: 140 to 142 °C
Structure (SMILES): COc1cc2c(c(OC)c1)C(Cc1ccc(-c3ccccc3OC)cc1)NCC2.Cl (stereo not drawn) [9a, 6,8-Dimethoxy-1-(2′-methoxybiphenyl-4-ylmethyl)-1,2,3,4-tetrahydroisoquinoline hydrochloride]
- EC50 ([1]; Rattus norvegicus, Astrocyte): 10.2 µM
- EC50 ([1]; hydrochloride, read-out: EC50 μM Astrocyte): 8.52 µM

Structure (SMILES): COc1cc2c(c(OC)c1)C(Cc1ccc(-c3cnccc3OC)cc1)NCC2 (stereo not drawn) [9b, 6,8-Dimethoxy-1-[4-(4-methoxypyridin-3-yl)benzyl]-1,2,3,4-tetrahydroisoquinoline dihydrochloride]
- EC50 (C6 rat glioma cells; Rattus norvegicus, Glioma cell, Table 1, read-out: EC50 μM C6): 0.08 µM
- EC50 ([1]; Rattus norvegicus, Astrocyte): 13.7 µM
